Results: patent US10316057B2, “Tandem facial amphiphiles” (WISCONSIN ALUMNI RESEARCH FOUNDATION, priority 2011, dated 2019)
Structures can show the parent of a compound that is named as a salt. Blank lines part the entries; values can stand above or below the molecule they belong to.

Experiments:
[1] = Water solubility and hydrogel formation; type: physicochemical
Description: (§1) TFA-0 forms a hydrogel at concentrations >0.4 wt %, and this compound was not studied further. The other three TFAs are soluble to 5-10 wt % in aqueous media. Critical micelle concentrations (CMC) were determined by monitoring solubilization of a hydrophobic fluorescent dye, […] (Chattopadhyay et al., Anal. Biochem. 1984, 139, 408-412), and the hydrodynamic radii (Rh) of the micelles were determined via dynamic light scattering (DLS). Table 1 compares the data for TFAs with those for DDM, a conventional detergent that is very widely used for MP applications; DDM and the TFAs share maltose as their hydrophilic moieties. CMC values of the three TFAs are smaller than that of DDM, whether CMC is measured in units of mM or wt %.
Several amphiphiles (TFA 1a-10a) were prepared and evaluated for their water solubility and critical micelle concentration (CMC). […] Examples of these TFAs include compounds of Formula VI: […]
These TFAs can be used to prepare hydrogels, which can be used tissue engineering or drug delivery applications. Examples of the generally water-insoluble TFAs include compounds of Formula XX: […]
(§2) Analysis of these TFAs for their CMC values provided the data in Table 3.

[2] = Critical micelle concentration by solubilization of a hydrophobic fluorescent dye; type: physicochemical
Description: The “Critical Micelle Concentration” (CMC) refers to the concentration of a detergent (e.g., an amphiphile as described herein) in an aqueous solution at which the detergent molecules self-assemble into micelles. Below the CMC, detergents are mostly monomeric; above the CMC, micelle concentration increases linearly with detergent concentration. The CMC is dependent upon many factors and is detergent-specific. The CMC of a detergent can be determined experimentally by measuring the solubilization of a water-insoluble dye or fluorophore while varying the concentration of detergent. A CMC may also be determined by measuring the diminution of the surface tension of an aqueous solution as a function of detergent concentration (CMCs determined by either method correlate with each other). The CMC is determined by extrapolating the plot of solubilization vs. concentration (or surface tension vs. concentration) in the two linear regions above and below the CMC. Where the two lines intersect is the CMC. The CMC can also be determined by the method of Nugebauer, J. M. (1990), Methods in Enzymology, 182:239-253.
as §1, §2

[3] = Hydrodynamic radii of micelles by dynamic light scattering (DLS); type: physicochemical; settings: 0.5 wt % amphiphile in water, 25° C.; mean ± SD, n = 3
Description: as §1
Each TFA and DDM was dissolved in distilled, deionized (DI) water to obtain 1 mL of a solution containing 0.5 wt % amphiphile. Each solution was filtered through a 0.02 μm filter for DLS measurements. A 100-mW, 532-nm laser (Compass 315M-100, Coherent, Santa Clara, Calif.) illuminated a temperature-controlled glass cell at 25° C. that was filled with a refractive-index matching fluid (decahydronaphthalene, Fisher Scientific, Pittsburgh, Pa.). The scattered light was collected at an angle of 90° for about 30 minutes. Rh values were determined using the integrated dynamics software that analyzes the time scale of the scattered light intensity fluctuations by an autocorrelation function. The autocorrelation functions (ACFs) were obtained using a BI-9000AT digital autocorrelator (Brookhaven Instruments, Holtsville, N.Y.). Measurements were repeated three times.

[4] = tested on: leucine transporter (LeuT WT); assay: LeuT functionality assay ([3H]-Leu binding by scintillation proximity assay); design: species or system Aquifex aeolicus; settings: higher amphiphile concentration, CMC+0.2 wt %, room temperature
Description: The wild type of bacterial leucine transporter (LeuT WT) was examined because the functional state of this membrane protein is readily assessed by using a scintillation proximity assay (SPA) (Quick et al., Proc. Natl. Acad. Sci. USA 2007, 104, 3603-3608) to monitor binding of radiolabelled leucine. LeuT was initially extracted with DDM and then diluted with amphiphile-containing solutions to generate final TFA concentrations of 0.04 wt % or 0.2 wt % (residual DDM=0.005 wt %). Control samples had 0.05 wt % or 0.2 wt % DDM (overall, the final concentrations were CMC+0.04 wt % or CMC+0.2 wt %).
The wild type of the leucine transporter (LeuT WT) from Aquifex aeolicus was expressed in Escherichia coli essentially as described by Deckert et al. (Nature 392, 353-358 (1998)). The pET16b-LeuT WT-8His plasmid was kindly provided by Dr. Eric Gouaux, Vollum Institute, Portland Oreg. LeuT WT was extracted from isolated bacterial membranes solubilized with 1% DDM, bound to Ni^2+-affinity Chelating Sepharose Fast Flow resin (GE Healthcare, USA), and eluted in buffer consisted of 20 mM Tris-HCl (pH 8.0), 1 mM NaCl, 199 mM KCl, 0.05% DDM and 300 mM imidazole. […] After incubation at room temperature, at the indicated time points, samples were centrifuged and the protein concentration was determined by absorbance measurements at 280 nm. Concomitantly, [^3H]-Leu binding was determined using scintillation proximity assay (SPA) (Quick and Javitch, Proc. Natl. Acad. Sci. USA 104, 3603-3608 (2007)), with the reaction mixture consisted of 5 μL from the respective samples, 33.3 nM [^3H]-Leu (PerkinElmer, USA) and copper chelate (His-Tag) YSi beads (GE Healthcare). […] Normalized results are expressed as mean±SEM (n=2), as illustrated in FIG. 11 (long-term solubility of LeuT WT incubated in the presence of TFA-1, TFA-3, and DDM at (a) CMC+0.04 wt % or (b) CMC+0.2 wt % at room temperature).

SMILES: C[C@H](CCC(=O)NCCCNC(=O)CC[C@@H](C)[C@H]1CC[C@H]2[C@@H]3CC[C@@H]4C[C@H](O[C@@H]5O[C@H](CO)[C@@H](O[C@H]6O[C@H](CO)[C@@H](O)[C@H](O)[C@H]6O)[C@H](O)[C@H]5O)CC[C@]4(C)[C@H]3C[C@H](O[C@@H]3O[C@H](CO)[C@@H](O[C@H]4O[C@H](CO)[C@@H](O)[C@H](O)[C@H]4O)[C@H](O)[C@H]3O)[C@]12C)[C@H]1CC[C@H]2[C@@H]3CC[C@@H]4C[C@H](O[C@@H]5O[C@H](CO)[C@@H](O[C@H]6O[C@H](CO)[C@@H](O)[C@H](O)[C@H]6O)[C@H](O)[C@H]5O)CC[C@]4(C)[C@H]3C[C@H](O[C@@H]3O[C@H](CO)[C@@H](O[C@H]4O[C@H](CO)[C@@H](O)[C@H](O)[C@H]4O)[C@H](O)[C@H]3O)[C@]12C [TFA-0]
concentration at which a hydrogel forms ([1]; in water): > 0.4 wt %

SMILES: CCN(CCCN(CC)C(=O)CC[C@@H](C)[C@H]1CC[C@H]2[C@@H]3CC[C@@H]4C[C@H](O[C@@H]5O[C@H](CO)[C@@H](O[C@H]6O[C@H](CO)[C@@H](O)[C@H](O)[C@H]6O)[C@H](O)[C@H]5O)CC[C@]4(C)[C@H]3C[C@H](O[C@@H]3O[C@H](CO)[C@@H](O[C@H]4O[C@H](CO)[C@@H](O)[C@H](O)[C@H]4O)[C@H](O)[C@H]3O)[C@]12C)C(=O)CC[C@@H](C)[C@H]1CC[C@H]2[C@@H]3CC[C@@H]4C[C@H](O[C@@H]5O[C@H](CO)[C@@H](O[C@H]6O[C@H](CO)[C@@H](O)[C@H](O)[C@H]6O)[C@H](O)[C@H]5O)CC[C@]4(C)[C@H]3C[C@H](O[C@@H]3O[C@H](CO)[C@@H](O[C@H]4O[C@H](CO)[C@@H](O)[C@H](O)[C@H]4O)[C@H](O)[C@H]3O)[C@]12C [TFA-2]
CMC ([2]; mean ± SD, n = 3): 0.013 ± 0.0018 mM | CMC (wt %) ([2]; mean ± SD, n = 3): 0.0028 ± 0.00039 wt % | Rh (nm), hydrodynamic radius of micelles measured by dynamic light scattering [3]: 2.0 ± 0.03 nm

SMILES: CCCCN(CCCN(CCCC)C(=O)CC[C@@H](C)[C@H]1CC[C@H]2[C@@H]3CC[C@@H]4C[C@H](O[C@@H]5O[C@H](CO)[C@@H](O[C@H]6O[C@H](CO)[C@@H](O)[C@H](O)[C@H]6O)[C@H](O)[C@H]5O)CC[C@]4(C)[C@H]3C[C@H](O[C@@H]3O[C@H](CO)[C@@H](O[C@H]4O[C@H](CO)[C@@H](O)[C@H](O)[C@H]4O)[C@H](O)[C@H]3O)[C@]12C)C(=O)CC[C@@H](C)[C@H]1CC[C@H]2[C@@H]3CC[C@@H]4C[C@H](O[C@@H]5O[C@H](CO)[C@@H](O[C@H]6O[C@H](CO)[C@@H](O)[C@H](O)[C@H]6O)[C@H](O)[C@H]5O)CC[C@]4(C)[C@H]3C[C@H](O[C@@H]3O[C@H](CO)[C@@H](O[C@H]4O[C@H](CO)[C@@H](O)[C@H](O)[C@H]4O)[C@H](O)[C@H]3O)[C@]12C [TFA-3]
maintaining LeuT WT function over 12 days [4]: matched DDM at the lower concentration | CMC ([2]; mean ± SD, n = 3): 0.007 ± 0.0023 mM | CMC (wt %) ([2]; mean ± SD, n = 3): 0.0016 ± 0.00051 wt % | Rh (nm), hydrodynamic radius of micelles measured by dynamic light scattering [3]: 3.3 ± 0.12 nm

Results, then the molecule that gave them:

CMC ([2]; Example 4, Table 3): 0.014 mM | CMC (wt. %) ([2]; Example 4, Table 3): 0.0030 wt. %
SMILES: CC(CCC(=O)N(C)CCCN(C)C(=O)CCC(C)C1CCC2C3CCC4CC(OC5OC(CO)C(OC6OC(CO)C(O)C(O)C6O)C(O)C5O)CCC4(C)C3CC(OC3OC(CO)C(OC4OC(CO)C(O)C(O)C4O)C(O)C3O)C12C)C1CCC2C3CCC4CC(OC5OC(CO)C(OC6OC(CO)C(O)C(O)C6O)C(O)C5O)CCC4(C)C3CC(OC3OC(CO)C(OC4OC(CO)C(O)C(O)C4O)C(O)C3O)C12C (centres unmarked) [TFA-4a]

water solubility ([1]; Example 4, under the conditions evaluated): insoluble
SMILES: CC(CCC(=O)NCc1ccc(CNC(=O)CCC(C)C2CCC3C4CCC5CC(OC6OC(CO)C(OC7OC(CO)C(O)C(O)C7O)C(O)C6O)CCC5(C)C4CC(OC4OC(CO)C(OC5OC(CO)C(O)C(O)C5O)C(O)C4O)C23C)cc1)C1CCC2C3CCC4CC(OC5OC(CO)C(OC6OC(CO)C(O)C(O)C6O)C(O)C5O)CCC4(C)C3CC(OC3OC(CO)C(OC4OC(CO)C(O)C(O)C4O)C(O)C3O)C12C (centres unmarked) [TFA-6a]

CMC ([2]; Example 4, Table 3): 0.013 mM | CMC (wt. %) ([2]; Example 4, Table 3): 0.0028 wt. %
SMILES: CCN(CCCN(CC)C(=O)CCC(C)C1CCC2C3CCC4CC(OC5OC(CO)C(OC6OC(CO)C(O)C(O)C6O)C(O)C5O)CCC4(C)C3CC(OC3OC(CO)C(OC4OC(CO)C(O)C(O)C4O)C(O)C3O)C12C)C(=O)CCC(C)C1CCC2C3CCC4CC(OC5OC(CO)C(OC6OC(CO)C(O)C(O)C6O)C(O)C5O)CCC4(C)C3CC(OC3OC(CO)C(OC4OC(CO)C(O)C(O)C4O)C(O)C3O)C12C (centres unmarked) [TFA-7a]

CMC ([2]; Example 4, Table 3): 0.01 mM | CMC (wt. %) ([2]; Example 4, Table 3): 0.0022 wt. %
SMILES: CCCCN(CCCN(CCCC)C(=O)CCC(C)C1CCC2C3CCC4CC(OC5OC(CO)C(OC6OC(CO)C(O)C(O)C6O)C(O)C5O)CCC4(C)C3CC(OC3OC(CO)C(OC4OC(CO)C(O)C(O)C4O)C(O)C3O)C12C)C(=O)CCC(C)C1CCC2C3CCC4CC(OC5OC(CO)C(OC6OC(CO)C(O)C(O)C6O)C(O)C5O)CCC4(C)C3CC(OC3OC(CO)C(OC4OC(CO)C(O)C(O)C4O)C(O)C3O)C12C (centres unmarked) [TFA-9a]

CMC ([2]; Example 4, Table 3): 0.004 mM | CMC (wt. %) ([2]; Example 4, Table 3): 0.0009 wt. %
SMILES: CCCCCN(CCCN(CCCCC)C(=O)CCC(C)C1CCC2C3CCC4CC(OC5OC(CO)C(OC6OC(CO)C(O)C(O)C6O)C(O)C5O)CCC4(C)C3CC(OC3OC(CO)C(OC4OC(CO)C(O)C(O)C4O)C(O)C3O)C12C)C(=O)CCC(C)C1CCC2C3CCC4CC(OC5OC(CO)C(OC6OC(CO)C(O)C(O)C6O)C(O)C5O)CCC4(C)C3CC(OC3OC(CO)C(OC4OC(CO)C(O)C(O)C4O)C(O)C3O)C12C (centres unmarked) [TFA-10a]
